Assay results reported in US12344600B2, “c-Myc mRNA translation modulators and uses thereof in the treatment of cancer” (Anima Biotech Inc., priority 2022, dated 2025).

These compounds were tested on c-Myc (assay: c-Myc immunofluorescence assay). Details: A549 cells, 24 hours, anti-c-Myc immunofluorescence.
Type: cell-based, human
Method in brief: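 A549 NSCLC cells grown 48 h, then treated 24 h with increasing compound concentrations; fixed in 4% paraformaldehyde, stained with anti-c-Myc antibody plus fluorescent secondary and DAPI. Per-cell c-Myc fluorescence quantified by high-content imaging at 20×; dose-response fitted by logistic regression to give EC50.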

Structure (SMILES) | Myc Efficacy (−LogEC50)
Cc1ccc(CN2CCC(CNC(=O)C3CCN(c4nc(-c5cccc(C#N)c5)no4)CC3)C2)cc1 (centres unmarked) [Compound 198, 1-(3-(3-cyanophenyl)-1,2,4-oxadiazol-5-yl)-N-((1-(4-methylbenzyl)pyrrolidin-3-yl)methyl)piperidine-4-carboxamide] | ++ (++ ≥5 and <6)
COc1ccc(-c2noc(N3CCC(c4ccccc4)CC3)n2)cc1 [Compound 136, 3-(4-methoxyphenyl)-5-(4-phenylpiperidin-1-yl)-1,2,4-oxadiazole] | − (− ≤3)
COc1ccc(-c2noc(N3CCC(C(=O)NCCCN4CCC(C)CC4)CC3)n2)cc1 [Compound 140, 1-(3-(4-methoxyphenyl)-1,2,4-oxadiazol-5-yl)-N-(3-(4-methylpiperidin-1-yl)propyl)piperidine-4-carboxamide] | + (+ >3 and <5)
CCCNC(=O)C1CCN(c2nc(-c3ccc(OC)cc3)no2)CC1 [Compound 127, 1-(3-(4-methoxyphenyl)-1,2,4-oxadiazol-5-yl)-N-propylpiperidine-4-carboxamide] | + (+ >3 and <5)
COc1ccc(-c2noc(N3CCC(C(=O)NC4(c5nc(C)cs5)CCC4)CC3)n2)cc1 [Compound 298, 1-(3-(4-methoxyphenyl)-1,2,4-oxadiazol-5-yl)-N-(1-(4-methylthiazol-2-yl)cyclobutyl)piperidine-4-carboxamide] | + (+ >3 and <5)
COc1ccc(-c2noc(N3CCC(C(=O)NC[C@H]4CCN(CC5CCN(C)CC5)C4)CC3)n2)cc1 [Compound 433, (R)-1-(3-(4-methoxyphenyl)-1,2,4-oxadiazol-5-yl)-N-((1-((1-methylpiperidin-4-yl)methyl)pyrrolidin-3-yl)methyl)piperidine-4-carboxamide] | + (+ >3 and <5)
COc1ccc(-c2noc(N3CCN(C(=O)NCCCN4CCC(Cc5ccccn5)CC4)CC3)n2)cc1 [Compound 248, 4-(3-(4-methoxyphenyl)-1,2,4-oxadiazol-5-yl)-N-(3-(4-(pyridin-2-ylmethyl)piperidin-1-yl)propyl)piperazine-1-carboxamide] | +++ (+++ ≥6)
COc1ccc(-c2noc(N3CCC(C(=O)NCC4CCN(Cc5cccs5)C4)CC3)n2)cc1 (centres unmarked) [Compound 372, 1-(3-(4-methoxyphenyl)-1,2,4-oxadiazol-5-yl)-N-((1-(thiophen-2-ylmethyl)pyrrolidin-3-yl)methyl)piperidine-4-carboxamide] | ++ (++ ≥5 and <6)
COc1ccc(-c2noc(N3CCC(C(=O)NC[C@H]4CCN(C)C4)CC3)n2)cc1 [Compound 253, (R)-1-(3-(4-methoxyphenyl)-1,2,4-oxadiazol-5-yl)-N-((1-methylpyrrolidin-3-yl)methyl)piperidine-4-carboxamide] | + (+ >3 and <5)
Cc1ccc(CN2CCC(CNC(=O)C3CCN(c4nc(-c5ccc(C#N)cc5)no4)CC3)C2)cc1 (centres unmarked) [Compound 158, 1-(3-(4-cyanophenyl)-1,2,4-oxadiazol-5-yl)-N-((1-(4-methylbenzyl)pyrrolidin-3-yl)methyl)piperidine-4-carboxamide] | ++ (++ ≥5 and <6)
COc1ccc(-c2noc(N3CCC(C(=O)NCC4CCN(Cc5ccc(C)s5)C4)CC3)n2)cc1 (centres unmarked) [Compound 385, 1-(3-(4-methoxyphenyl)-1,2,4-oxadiazol-5-yl)-N-((1-((5-methylthiophen-2-yl)methyl)pyrrolidin-3-yl)methyl)piperidine-4-carboxamide] | ++ (++ ≥5 and <6)
COc1ccc(-c2noc(N3CCC(C(=O)NCC4CCN(Cc5ccoc5)C4)CC3)n2)cc1 (centres unmarked) [Compound 330, N-((1-(furan-3-ylmethyl)pyrrolidin-3-yl)methyl)-1-(3-(4-methoxyphenyl)-1,2,4-oxadiazol-5-yl)piperidine-4-carboxamide] | + (+ >3 and <5)
COc1ccc(-c2noc(N3CCC(C(=O)NCC4CCN(C(=O)c5ccc(C)cn5)C4)CC3)n2)cc1 (centres unmarked) [Compound 242, 1-(3-(4-methoxyphenyl)-1,2,4-oxadiazol-5-yl)-N-((1-(5-methylpicolinoyl)pyrrolidin-3-yl)methyl)piperidine-4-carboxamide] | + (+ >3 and <5)
COc1ccc(-c2noc(N3CCC(C(=O)NC4COC5(CCCCC5)C4)CC3)n2)cc1 (centres unmarked) [Compound 290, 1-(3-(4-methoxyphenyl)-1,2,4-oxadiazol-5-yl)-N-(1-oxaspiro[4.5]decan-3-yl)piperidine-4-carboxamide] | + (+ >3 and <5)
CCCCN(CC)CCCNC(=O)C1CCN(c2nc(-c3ccc(OC)cc3)no2)CC1 [Compound 102, N-(3-(butyl(ethyl)amino)propyl)-1-(3-(4-methoxyphenyl)-1,2,4-oxadiazol-5-yl)piperidine-4-carboxamide] | + (+ >3 and <5)
COc1ccc(-c2noc(N3CCC(C(=O)NCC4CCN(Cc5cccnc5)C4)CC3)n2)cc1 (centres unmarked) [Compound 356, 1-(3-(4-methoxyphenyl)-1,2,4-oxadiazol-5-yl)-N-((1-(pyridin-3-ylmethyl)pyrrolidin-3-yl)methyl)piperidine-4-carboxamide] | ++ (++ ≥5 and <6)

Structure (SMILES) | Myc Efficacy (−LogEC50)
COc1ccc(-c2noc(N3CCN(C(=O)N4CCCC(CC(C)C)C4)CC3)n2)cc1 (centres unmarked) [Compound 226, (3-isobutylpiperidin-1-yl)(4-(3-(4-methoxyphenyl)-1,2,4-oxadiazol-5-yl)piperazin-1-yl)methanone] | + (+ >3 and <5)
COc1ccc(-c2noc(N3CCC(C(=O)NC[C@H](C)OC)CC3)n2)cc1 [Compound 276, (S)-1-(3-(4-methoxyphenyl)-1,2,4-oxadiazol-5-yl)-N-(2-methoxypropyl)piperidine-4-carboxamide] | + (+ >3 and <5)
COc1ccc(-c2noc(N3CCC(C(=O)NCc4cc(C)ccc4F)CC3)n2)cc1 [Compound 311, N-(2-fluoro-5-methylbenzyl)-1-(3-(4-methoxyphenyl)-1,2,4-oxadiazol-5-yl)piperidine-4-carboxamide] | − (− ≤3)
COc1ccc(-c2noc(N3CCC(C(=O)NCC4CCN(Cc5ccco5)C4)CC3)n2)cc1 (centres unmarked) [Compound 320, N-((1-(furan-2-ylmethyl)pyrrolidin-3-yl)methyl)-1-(3-(4-methoxyphenyl)-1,2,4-oxadiazol-5-yl)piperidine-4-carboxamide] | + (+ >3 and <5)
COc1ccc(-c2noc(N3CCC(C(=O)NCc4cccc(OC)c4)CC3)n2)cc1 [Compound 121, N-(3-methoxybenzyl)-1-(3-(4-methoxyphenyl)-1,2,4-oxadiazol-5-yl)piperidine-4-carboxamide] | + (+ >3 and <5)
COc1ccc(-c2noc(N3CCC(C(=O)NCC4OCCc5ccccc54)CC3)n2)cc1 (centres unmarked) [Compound 303, N-(isochroman-1-ylmethyl)-1-(3-(4-methoxyphenyl)-1,2,4-oxadiazol-5-yl)piperidine-4-carboxamide] | + (+ >3 and <5)
COc1ccc(-c2noc(N3CCC(C(=O)NCC4CCc5ccccc5O4)CC3)n2)cc1 (centres unmarked) [Compound 278, N-(chroman-2-ylmethyl)-1-(3-(4-methoxyphenyl)-1,2,4-oxadiazol-5-yl)piperidine-4-carboxamide] | + (+ >3 and <5)
COc1ccc(-c2cc(N3CCC(C(=O)NCc4cccnc4)CC3)on2)cc1 [Compound 181, 1-(3-(4-methoxyphenyl)isoxazol-5-yl)-N-(pyridin-3-ylmethyl)piperidine-4-carboxamide] | + (+ >3 and <5)
COc1ccc(-c2noc(N3CCC(C(=O)NCC4CCN(Cc5ccncc5)C4)CC3)n2)cc1 (centres unmarked) [Compound 322, 1-(3-(4-methoxyphenyl)-1,2,4-oxadiazol-5-yl)-N-((1-(pyridin-4-ylmethyl)pyrrolidin-3-yl)methyl)piperidine-4-carboxamide] | ++ (++ ≥5 and <6)
COc1ccc(-c2noc(N3CCC(C(=O)NCC4CCN(C(C)CO)C4)CC3)n2)cc1 (centres unmarked) [Compound 397, N-((1-(1-hydroxypropan-2-yl)pyrrolidin-3-yl)methyl)-1-(3-(4-methoxyphenyl)-1,2,4-oxadiazol-5-yl)piperidine-4-carboxamide] | − (− ≤3)
COc1ccc(-c2noc(N3CCC(C(=O)NCC4CCN(Cc5nccs5)C4)CC3)n2)cc1 (centres unmarked) [Compound 364, 1-(3-(4-methoxyphenyl)-1,2,4-oxadiazol-5-yl)-N-((1-(thiazol-2-ylmethyl)pyrrolidin-3-yl)methyl)piperidine-4-carboxamide] | + (+ >3 and <5)
COc1ccc(-c2noc(N3CCC(Oc4ccccc4)CC3)n2)cc1 [Compound 135, 3-(4-methoxyphenyl)-5-(4-phenoxypiperidin-1-yl)-1,2,4-oxadiazole] | − (− ≤3)
COc1ccc(-c2noc(N3CCC(C(=O)NCC4CCN(C[C@@H]5CCCN5)C4)CC3)n2)cc1 (stereo partly drawn) [Compound 392, 1-(3-(4-methoxyphenyl)-1,2,4-oxadiazol-5-yl)-N-((1-(((S)-pyrrolidin-2-yl)methyl)pyrrolidin-3-yl)methyl)piperidine-4-carboxamide] | + (+ >3 and <5)
COc1ccc(-c2noc(N3CCC(C(=O)NCC4CCN(Cc5scnc5C)C4)CC3)n2)cc1 (centres unmarked) [Compound 404, 1-(3-(4-methoxyphenyl)-1,2,4-oxadiazol-5-yl)-N-((1-((4-methylthiazol-5-yl)methyl)pyrrolidin-3-yl)methyl)piperidine-4-carboxamide] | ++ (++ ≥5 and <6)
C#CCCC1(CCOc2ccc(-c3noc(N4CCC(C(=O)NCC5CCN(Cc6ccc(C)cc6)C5)CC4)n3)cc2)N=N1 (centres unmarked) [Compound 287, 1-(3-(4-(2-(3-(but-3-yn-1-yl)-3H-diazirin-3-yl)ethoxy)phenyl)-1,2,4-oxadiazol-5-yl)-N-((1-(4-methylbenzyl)pyrrolidin-3-yl)methyl)piperidine-4-carboxamide] | +++ (+++ ≥6)
COc1ccc(-c2noc(N3CCC(C(=O)NCC4CCN(Cc5cnc(C)s5)C4)CC3)n2)cc1 (centres unmarked) [Compound 388, 1-(3-(4-methoxyphenyl)-1,2,4-oxadiazol-5-yl)-N-((1-((2-methylthiazol-5-yl)methyl)pyrrolidin-3-yl)methyl)piperidine-4-carboxamide] | ++ (++ ≥5 and <6)
